The source made the active and inactive calls. No cut-off for these calls is given here.
Tests used:
[1] = Induction of AFT3 gene expression in mouse 3T3-L1 cells assessed as relative gene expression level at 50 uM incubated for 8 days by real time-PCR analysis (reference value: 1.00); assay type: functional; settings: time 8 day
3T3-L1 [2] = test: Induction of AFT3 expression in mouse 3T3-L1 cells at 50 to 100 uM incubated for 6 days by Western blot analysis; assay type: functional, cell-based; settings: dose 50-100 µM, time 6.0 day
[3] = (§1) Cytotoxicity against mouse 3T3-L1 adipocytes assessed as reduction in cell viability; assay type: toxicity, cell-based; settings: 3T3-L1 adipocytes
3T3-L1 [4] = test: Downregulation of lipid accumulation in mouse 3T3-L1 pre-adipocyte model at 50 to 100 uM incubated for […] by Oil Red O staining based analysis; assay type: functional, cell-based; settings: dose 50-100 µM
3T3-L1 [5] = test: as §1; assay type: toxicity, cell-based; settings: 3t3-l1
Mus musculus [6] = organism: Mus musculus; test: Inhibition of high fat diet induced metabolic disturbance in C57BL/6 mouse model assessed as reduction in hypertrophic eWAT adipocytes by H and E staining based analysis; assay type: functional, cell-based
Mus musculus [7] = test: Inhibition of high fat diet induced metabolic disturbance in C57BL/6 mouse model assessed as reduction in inguinal white adipose tissue weight at 40 mg/kg, ip; assay type: functional, organism-based
Mus musculus [8] = organism: Mus musculus; test: Inhibition of high fat diet induced metabolic disturbance in C57BL/6 mouse model assessed as reduction in hypertrophic iWAT adipocytes by H and E staining based analysis; assay type: functional, cell-based
[9] = Inhibition of high fat diet induced metabolic disturbance in C57BL/6 mouse model assessed as reduction in body weight at 40 mg/kg, ip administered 3 times weekly for 10 weeks (reference value: 34.86 +/-[…]); assay type: functional
Mus musculus [10] = test: Inhibition of high fat diet induced metabolic disturbance in C57BL/6 mouse model assessed as reduction in […] adipose tissue weight at 40 mg/kg, ip; assay type: functional, organism-based
Mus musculus [11] = organism: Mus musculus; test: Anti-hyperglycemic activity in 16 hrs overnight fasted high fat diet induced C57BL/6 mouse assessed as reduction in glucose intolerance measured at upto 120 mins; assay type: functional, organism-based
Mus musculus [12] = organism: Mus musculus; test: Anti-hyperglycemic activity in 16 hrs overnight fasted high fat diet induced C57BL/6 mouse assessed as reduction in insulin resistance measured at upto 120 mins; assay type: functional, organism-based
Mus musculus [13] = test: Inhibition of high fat diet induced metabolic disturbance in C57BL/6 mouse model assessed as reduction in size of epididymal white adipose tissue at 40 mg/kg, ip; assay type: functional, organism-based
Mus musculus [14] = test: Hepatoprotective activity in high fat diet induced C57BL/6 mouse assessed as reduction in GOT level at 40 mg/kg administered thrice weekly; assay type: functional, organism-based
Mus musculus [15] = test: Hepatoprotective activity in high fat diet induced C57BL/6 mouse assessed as reduction in GPT level at 40 mg/kg administered thrice weekly; assay type: functional, organism-based
Mus musculus [16] = test: Protection against hyperlipidemia in high fat diet-fed C57BL/6 mouse model assessed as reduction in total plasma cholesterol level at 40 mg/kg administered thrice weekly; assay type: functional, organism-based
Mus musculus [17] = test: Inhibition of high fat diet induced metabolic disturbance in C57BL/6 mouse model assessed as reduction in epididymal white adipose tissue weight at 40 mg/kg, ip; assay type: functional, organism-based
Mus musculus [18] = test: Reduction in hepatic steatosis in high fat diet induced metabolic disturbance in C57BL/6 mouse model at 40 mg/kg, ip by hematoxylin and eosin staining based assay; assay type: functional, organism-based
Mus musculus [19] = test: Protection against hyperlipidemia in high fat diet-fed C57BL/6 mouse model assessed as reduction in hypo-triglyceridemic level at 40 mg/kg administered thrice weekly; assay type: functional, organism-based

`CC1(C)Oc2c(c(=O)oc3c2ccc2ccccc23)C1(C)C` gave an Activity [1] of 3.22.
Compound `O=c1oc2c(ccc3ccccc32)c2c1C(O)(C(F)(F)F)CO2` (centres undefined) has an Activity [1] of 2.19.
In the case of `Cc1[nH]nc(-c2ccc3ccccc3c2O)c1C(=O)O`, the Activity [1] is reported as 1.2.
`COc1ccc2c(c1)oc(=O)c1c(C(F)(F)F)n[nH]c12` showed an Activity [1] of 1.55.
With `COc1cccc2c1oc(=O)c1c(C)n[nH]c12` the Activity (3T3-L1 [2]) was “Active”, the CC50 [3] was over 100 µM and the Activity (3T3-L1 [4]) was “Active”. The Activity [1] was 4.78.
Work on `O=c1oc2cc(Br)ccc2c2c1C(O)(C(F)(F)F)CO2` (centres undefined) yielded an Activity [1] of 1.08.
For `O=c1oc2cc(O)ccc2c2occ(C(F)(F)F)c12`, the Activity [1] was 1.4.
`O=c1oc2c3ccccc3ccc2c2[nH]nc(C(F)(F)F)c12` gave an Activity [1] of 1.62.
With `Cc1coc2c1c(=O)oc1cc(Br)ccc12` the Activity [1] was 1.28.
In the case of `O=c1oc2cc(Br)ccc2c2[nH]nc(C(F)(F)F)c12`, the Activity (3T3-L1 [5]) is reported as “Toxic” and the Activity [1] is reported as 7.31.
With `O=c1oc2c3ccccc3ccc2c2occ(CO)c12` the Activity [1] was 1.39.
`O=c1oc2c3ccccc3ccc2c2occ(C(F)(F)F)c12` gave an Activity [1] of 1.44.
Compound `Cc1ccc2c(c1)oc(=O)c1c(C)n[nH]c12` has an Activity [1] of 1.38.
Work on `O=c1oc2c3ccccc3ccc2c2occ(C3CC3)c12` yielded an Activity [1] of 2.92.
Work on `Cc1coc2c1c(=O)oc1c3ccccc3ccc21` yielded an Activity [1] of 1.94.
Compound `Cc1n[nH]c2c1c(=O)oc1c3ccccc3ccc21` has an Activity [1] of 1.84.
`O=c1oc2cc(OCc3ccncc3)ccc2c2occ(C(F)(F)F)c12` gave an Activity [1] of 1.23.
`COc1ccc2c3c(c(=O)oc2c1)C(O)(C(F)(F)F)CO3` (centres undefined) showed an Activity [1] of 1.39.
In the case of `COc1ccc2c(c1)oc(=O)c1c(C(F)(F)F)coc12`, the Activity [1] is reported as 2.8.
`COc1ccc(-c2n[nH]c(C)c2C(=O)O)c(O)c1` gave an Activity [1] of 1.07.
Compound `Cc1n[nH]c2c1c(=O)oc1cc(F)ccc12` has an Activity [1] of 1.46.
Work on `COc1ccc2c(c1)oc(=O)c1c(C3CC3)coc12` yielded an Activity [1] of 1.96.
Compound `O=c1oc2cc(O)ccc2c2c1C(O)(C(F)(F)F)CO2` (centres undefined) has an Activity [1] of 0.99.
Work on `OCc1c(C(F)(F)F)coc1-c1ccc2ccccc2c1O` yielded an Activity [1] of 1.41.
For `COc1cccc2oc(=O)c3c(C)n[nH]c3c12`, the Activity [1] was 0.98.
In the case of `C[C@@H]1c2c(c3ccc4ccccc4c3oc2=O)O[C@@H]1C`, the inhibition (Mus musculus [6]) is reported as “Active”, the inhibition (Mus musculus [7]) is reported as “Active” and the inhibition (Mus musculus [8]) is reported as “Active”. The Activity [9] was 30.5 g, the inhibition (Mus musculus [10]) was “Active” and the Activity (Mus musculus [11]) was “Active”. The Activity (Mus musculus [12]) was “Active”, the inhibition (Mus musculus [13]) was “Active” and the Activity (Mus musculus [14]) was “inactive”. The Activity (Mus musculus [15]) was “inactive”, the Activity (Mus musculus [16]) was “Active” and the Activity [1] was 2.1. The inhibition (Mus musculus [17]) was “Active”.
With `Cc1n[nH]c2c1c(=O)oc1cc(Br)ccc12` the Activity [1] was 2.12.
For `O=C(O)c1coc2c1c(=O)oc1c3ccccc3ccc21`, the Activity [1] was 1.06.
`COc1ccc2c(c1)oc(=O)c1c(C)onc12` gave an Activity [1] of 1.62.
`Cn1ncc2c3ccc4ccccc4c3oc(=O)c21` gave an Activity [1] of 1.44.
In the case of `COc1cccc2c1oc(=O)c1c(C(F)(F)F)n[nH]c12`, the Activity [1] is reported as 1.81.
For `COc1ccc2c(c1)oc(=O)c1c(C)n[nH]c12`, the inhibition (Mus musculus [6]) was “Active”, the Activity (Mus musculus [18]) was “Active” and the inhibition (Mus musculus [7]) was “Active”. The Activity (3T3-L1 [2]) was “Active”, the Activity (Mus musculus [19]) was “Active” and the inhibition (Mus musculus [8]) was “Active”. The Activity [9] was 30 g, the inhibition (Mus musculus [10]) was “Active” and the Activity (Mus musculus [11]) was “Active”. The Activity (Mus musculus [12]) was “Active”, the inhibition (Mus musculus [13]) was “Active” and the CC50 [3] was over 100 µM. For the same compound, the Activity (Mus musculus [14]) was “inactive”, the Activity (Mus musculus [15]) was “Active” and the Activity (Mus musculus [16]) was “Active”. The Activity [1] was 4.29 and the inhibition (Mus musculus [17]) was “Active”.

From ChEMBL document CHEMBL5352449, “Exploration and biological evaluation of 7-methoxy-3-methyl-1H-chromeno[4,3-c]pyrazol-4-one as an activating transcription factor 3 inducer for managing metabolic syndrome” (Eur J Med Chem, 2023)
